Laboratory results: the supplement of paper PMC12420376

Tests used:
KURAMOCHI = assay: drug sensitivity score (DSS2) on cancer cell count; higher = more sensitive; extreme values may be limits of the assay; settings: 72 h
Summary of the method: (§1)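 Ovarian cancer cells were grown alone or in 1:1 direct co-culture with lung or skin fibroblasts. They were plated onto 384-well plates pre-spotted acoustically with 528 approved and investigational compounds at 5 concentrations, then treated for 72 h. Cells were fixed, immunostained for CK8/18 with Hoechst, and imaged at 10× (4 fields) to count cancer cells. A drug sensitivity score (DSS2) was derived in Breeze from 4-parameter logistic fits, with screen quality checked by Z'.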

OVCAR8 = assay: as above; settings: 72 h
Summary of the method: as §1

[1] = co-cultured fibroblast: BJHTERT
[2] = co-cultured fibroblast: none (monoculture)

SMILES | drug sensitivity score (KURAMOCHI; [1]) [DSS] | drug sensitivity score (KURAMOCHI; co-cultured fibroblast: WI38) [DSS] | drug sensitivity score (KURAMOCHI; [2]) [DSS] | drug sensitivity score (OVCAR8; [1]) [DSS] | drug sensitivity score (OVCAR8; co-cultured fibroblast: WI38) [DSS] | drug sensitivity score (OVCAR8; [2]) [DSS]
CN1CCN(C(=O)c2ccc3cc(CCNc4ncnc5ccc(C#N)cc45)ccc3c2)CC1 [Senexin B] | 1.1 | 1.6 | 1 | 1.1 | 0 | 0.1
C=CC(=O)N1CCC[C@@H](n2nc(-c3ccc(Oc4ccccc4)cc3)c3c(N)ncnc32)C1 [Ibrutinib] | 3.1 | 3 | 0 | 1.1 | 0 | 0
CN1C(=O)N[C@H](Cc2c[nH]c3c(Cl)cccc23)C1=O [Necrostatin 2] | 0 | 0 | 0 | 0 | 0 | 0
O=C(NC[C@H](O)CN1CCc2ccccc2C1)c1cc(NC2COC2)ncn1 | 0.1 | 0 | 0 | 0 | 0 | 0
C=CC(=O)N1CC/C(=C\c2ccc(F)c([N+](=O)[O-])c2)C(=O)/C(=C/c2ccc(F)c([N+](=O)[O-])c2)C1 [VLX1570] | 27.4 | 24.7 | 29 | 24.8 | 31.1 | 31.7
CCS(=O)(=O)N1CCN(c2ccc(Nc3ncc(C(N)=O)c(NC4CC4)n3)cc2)CC1 [Cerdulatinib] | 0 | 4.3 | 1.1 | 0 | 4.3 | 1.1
COc1ccc(CCc2nc3cc(-c4c(C)noc4C)ccc3n2C[C@H](C)N2CCOCC2)cc1Cl [SGC-CBP30] | 5.7 | 1.3 | 3.2 | 9.9 | 1.7 | 4.5
CC(C)[C@@H](CS(=O)(=O)C(C)C)N1C(=O)[C@@](C)(CC(=O)O)C[C@H](c2cccc(Cl)c2)[C@H]1c1ccc(Cl)cc1 [AMG-232] | 0.2 | 0 | 0.5 | 1.6 | 0 | 0.7
O=C(Nc1c[nH]nc1-c1nc2ccc(CN3CCOCC3)cc2[nH]1)NC1CC1 [AT9283] | 15.8 | 16 | 19.6 | 10.7 | 14.2 | 9
CN(C(=O)c1ccc(F)cc1C(F)(F)F)C1CCN(c2nnc(-c3ccnn3C)c3ccccc23)CC1 [Taladegib] | 0 | 0 | 0 | 0 | 0 | 0
CC[C@@H]1C(=O)N(C)c2cnc(Nc3ccc(C(=O)NC4CCN(C)CC4)cc3OC)nc2N1C1CCCC1 [BI 2536] | 21.7 | 25.7 | 21.1 | 29.5 | 25.6 | 29.1
CN1CCN(c2ccc3nc(-c4c(N)c5c(F)cccc5[nH]c4=O)[nH]c3c2)CC1 [Dovitinib] | 0 | 0 | 0 | 0.5 | 0 | 0.3
C[C@@H]1COCCN1c1cc(C2([S@](C)(=N)=O)CC2)nc(-c2cc[nH]c3nccc2-3)n1 [AZD6738] | 10.4 | 8.6 | 10.9 | 11.1 | 4.4 | 8.1
C/C=C1\NC(=O)[C@H]2CSSCC/C=C/[C@H](CC(=O)N[C@H](C(C)C)C(=O)N2)OC(=O)[C@H](C(C)C)NC1=O [Romidepsin] | 28 | 30 | 32.7 | 29.2 | 26.5 | 30.4
CNc1nc(-c2ccc3c(N)n[nH]c3c2)cc(N2C[C@@H](C(=O)NC3CCCCC3)CC[C@H]2C)n1 | 3.2 | 3.1 | 6.5 | 1.3 | 0.1 | 2.8
NC(=O)c1cccc2cn(-c3ccc([C@@H]4CCCNC4)cc3)nc12 [Niraparib] | 5.8 | 6.8 | 5.1 | 14.9 | 8.1 | 9
Cc1nc(C(=O)NCC(=O)O)c(O)c2ccc(Oc3ccccc3)cc12 [Roxadustat] | 3 | 0 | 0 | 0 | 0 | 0
Nc1nc(OCc2cc(Br)cs2)c2[nH]cnc2n1 [Lomeguatrib] | 0 | 0 | 0 | 0 | 0.8 | 0
CCCCc1nc2cc(/C=C/C(=O)NO)ccc2n1CCN(CC)CC [Pracinostat] | 15.7 | 20.4 | 19.8 | 23.1 | 20.4 | 25.5
CC/C(=C(\c1ccc(O)cc1)c1ccc(OCCN(C)C)cc1)c1ccccc1 [4-hydroxytamoxifen] | 4.8 | 1.8 | 2.2 | 0.2 | 0 | 4.9
CCN(CC)CCNC(=O)c1c(C)[nH]c(/C=C2\C(=O)Nc3ccc(-c4csc(-c5ccccc5)n4)cc32)c1C [Amcasertib] | 8.1 | 3.9 | 6.7 | 3.3 | 3.1 | 0
COc1cccc(OCCCN)c1-c1cc(Nc2cnc(C#N)cn2)n[nH]1 [Prexasertib] | 25.7 | 23.7 | 30.7 | 35 | 33.7 | 29.8
NCC(=O)Nc1ccc(-n2nc(C(F)(F)F)cc2-c2ccc3c(ccc4ccccc43)c2)cc1 | 2.6 | 4.1 | 8 | 0 | 0 | 9.7
CCCCCOC(=O)Nc1nc(=O)n([C@@H]2O[C@H](C)[C@@H](O)[C@H]2O)cc1F [Capecitabine] | 3.3 | 0 | 0 | 0 | 2.7 | 1.2
CC#CC(=O)N1CCC[C@H]1c1nc(-c2ccc(C(=O)Nc3ccccn3)cc2)c2c(N)nccn12 [Acalabrutinib] | 0 | 0 | 11 | 0 | 0 | 0
COc1cc2c(Oc3ccc(NC(=O)C4(C(=O)Nc5ccc(F)cc5)CC4)cc3F)ccnc2cc1OCCCN1CCOCC1 [Foretinib] | 2.7 | 4.3 | 1.7 | 5.7 | 5.6 | 6.1
CN1CCN(C2CCN(C(=O)Nc3cc(Oc4ccc(NC(=O)C5(C(=O)Nc6ccc(F)cc6)CC5)c(F)c4)ccn3)CC2)CC1 [Golvatinib] | 0 | 0 | 0 | 0 | 0 | 0
